{"source": "patent US20170044232A1", "about": "“MUTANT SMOOTHENED AND METHODS OF USING THE SAME” (GENENTECH, INC., priority 2014, published 2017)", "key": {"[1]": {"system": "PPT CGNPs expressing vismodegib-resistant SMO mutants", "test": "PPT CGNP proliferation, methyl-[3H]-thymidine incorporation", "type": "cell-based, mice", "conditions": "1 μM JQ1 (FIG. 16B)", "text": "(§1) It has previously been noted that Hh-driven tumor cells rapidly lose their Hh pathway dependence during culturing (Sasai et al., 2006). However, CGNPs proliferate in vivo in a Hh dependent manner and maintain their Hh pathway dependence in culture for a finite period (Wechsler-Reya and Scott, 1999). CGNPs isolated from Ptch1loxp/loxp Tp53loxp/loxp Rosa26LSL-tdTomato (PPT) pups were infected with lentiviral constructs expressing a SMO variant together with an enhanced green fluorescent protein (eGFP)-Cre fusion protein (FIG. 12C). The Cre recombinase induces loss of Ptch1 and thus ensures that only transduced CGNPs can proliferate in the absence of exogenous Sonic hedgehog ligand (SHH; FIG. 11D). […] Proliferation by methyl-[3H]-thymidine incorporation was monitored, while Cre-dependent tandem dimer (td) Tomato expression enabled visualization and quantification of infected cells.\n(§2) SMO mutants were generated in pRK5-SMO vectors as described (Dijkgraaf et al., 2011; Yauch et al., 2009) and were either utilized in Gli-luciferase reporter assays as described (Dijkgraaf et al., 2011) or cloned into lentiviral vectors for transduction of primary CGNP cultures. Proliferation was assayed using methyl-[3H]-thymidine incorporation (Kool et al., 2014).\n(§3) Cerebella from post-natal day 5-7 Ptch1^loxp/loxp Rosa26^LSL.tdTomato Tp53^loxp/loxp mice were dissociated in 0.05% Trypsin for 10 min at 37° C. Cells were collected by centrifugation at 514×g for 10 min at 4° C., resuspended in CGNP media (Neurobasal medium (Life Technologies) containing 1×B27 (without vitamin A; Life Technologies), 0.45% glucose (Sigma Aldrich), 25 mM KCl, 0.4% bovine serum albumin (Sigma Aldrich), 2 mM glutamine, 100 U/ml Penicillin (Life Technologies), 100 μg/ml Streptomycin (Life Technologies), 200 ng/ml octylated recombinant SHH) and filtered through a 0.45 μm filter (Falcon). Cells were plated in poly-D-lysine coated 6-well plates (Corning) at 5×10E5 cells/well and infected with lentivirus at a multiplicity of infection (MOI) of 1. After 24 hr, cells were harvested by trypsinization, collected in CGNP media and replated for downstream applications.\n(§4) To examine the effects of HPIs on proliferation, virally transduced CGNPs were plated in poly-D-lysine-coated 96-well plates (Corning) at 25,000 cells/well in CGNP media without SHH. […] After 24 hr, cells were pulsed with 1 μCi/ml methyl-[^3H]-thymidine (Amersham/GE Healthcare) and cultured for an additional 16-24 hr. Cells were harvested onto 96-well filter plates (Perkin Elmer) using a Filtermate Cell Harvester (Perkin Elmer), and incorporated radioactivity was quantified by liquid scintillation spectrophotometry on a TopCount NXT (PerkinElmer)."}, "SMO L515A": {"biological_target": "SMO L515A (Homo sapiens, UniProt Q99835, L515A)", "sequence (Q99835 28-787 L515A)": "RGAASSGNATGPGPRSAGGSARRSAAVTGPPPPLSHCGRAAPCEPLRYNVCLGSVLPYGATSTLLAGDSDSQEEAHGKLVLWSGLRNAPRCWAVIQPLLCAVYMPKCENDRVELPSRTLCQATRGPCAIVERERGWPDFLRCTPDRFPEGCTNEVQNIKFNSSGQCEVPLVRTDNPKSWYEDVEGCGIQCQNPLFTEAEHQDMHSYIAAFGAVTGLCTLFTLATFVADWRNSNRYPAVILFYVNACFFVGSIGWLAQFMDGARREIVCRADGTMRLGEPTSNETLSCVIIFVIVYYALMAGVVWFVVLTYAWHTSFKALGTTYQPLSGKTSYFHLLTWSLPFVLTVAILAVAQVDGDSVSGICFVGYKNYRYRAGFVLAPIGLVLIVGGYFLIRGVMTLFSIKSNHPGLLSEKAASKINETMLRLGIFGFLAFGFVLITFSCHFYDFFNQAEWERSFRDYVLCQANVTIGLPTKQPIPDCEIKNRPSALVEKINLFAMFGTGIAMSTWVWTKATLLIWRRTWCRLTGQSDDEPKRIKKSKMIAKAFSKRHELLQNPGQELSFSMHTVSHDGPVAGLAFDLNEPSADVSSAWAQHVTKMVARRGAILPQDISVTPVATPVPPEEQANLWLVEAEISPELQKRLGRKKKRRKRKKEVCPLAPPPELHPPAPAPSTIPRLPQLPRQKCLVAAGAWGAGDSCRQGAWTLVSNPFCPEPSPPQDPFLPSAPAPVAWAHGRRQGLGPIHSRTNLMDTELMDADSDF", "conditions": "1 mM vismodegib; cited from earlier work"}, "SMO E518K": {"biological_target": "SMO E518K (Homo sapiens, UniProt Q99835, E518K)", "sequence (Q99835 28-787 E518K)": "as the sequence (Q99835 28-787 L515A) above, with A488L, E491K counted along it", "conditions": "cited from earlier work"}, "SMO-A459V": {"biological_target": "T1, SMO-A459V (Homo sapiens, UniProt Q99835, A459V)", "T1 construct": "expressed in transfected cells; host or cells: C3H10T1/2 cells", "T1 sequence (Q99835 28-787 A459V)": "as the sequence (Q99835 28-787 L515A) above, with A432V, A488L counted along it", "test": "Gli-luciferase based Hh reporter assay", "type": "cell-based", "conditions": "C3H10T½ cells", "experimental": "as §2\nC3H10T½ cells (ATCC) were seeded into six-well plates at 1.75×10E5 cells/well in DMEM High Glucose with 4 mM glutamine, 10 mM Hepes pH 7.2 and 10% FBS. After 16 h cells were transfected with 400 ng of expression construct, 400 ng of 9×-Gli-BS and 200 ng of pRL-TK per well using GeneJuice Transfection Reagent (Novagen). For the PTCH1 inhibition experiments, cells were transfected with 200 ng SMO expression construct and an additional 200 ng of DNA containing varying ratios of PTCH1 to empty vector. Six hours later, cells from one well were trypsinized and redistributed over four wells of a 12-well plate. After 16 hours the FBS content of the culture medium was reduced to 0.5% to induce formation of primary cilia, and small molecule Hh inhibitors were added at indicated concentrations. Firefly luciferase activity was determined 24 hours later with the Dual-Glo Luciferase Assay System (Promega) and read using a Wallac EnVision plate reader (Perkin Elmer). […]"}, "SMO E518A": {"biological_target": "SMO E518A (Homo sapiens, UniProt Q99835, E518A)", "sequence (Q99835 28-787 E518A)": "as the sequence (Q99835 28-787 L515A) above, with A488L, E491A counted along it", "conditions": "cited from earlier work"}, "[2]": {"system": "PPT CGNPs infected with SMO DBP mutants", "test": "PPT CGNP proliferation, methyl-[3H]-thymidine incorporation", "type": "cell-based, mice", "conditions": "all DBP mutations; >1 μM vismodegib (FIG. 12D)", "text": "as §1, §2, §3, §4"}, "[3]": {"system": "SMOW535L expressing CGNPs", "test": "PPT CGNP proliferation, methyl-[3H]-thymidine incorporation", "type": "cell-based, mice", "conditions": "SMOW535L (FIG. 15D)", "text": "as §1, §2, §3, §4"}, "[4]": {"system": "SMO-A459V expressing CGNPs", "test": "PPT CGNP proliferation, methyl-[3H]-thymidine incorporation", "type": "cell-based, mice", "conditions": "SMO-A459V (FIG. 15D)", "text": "as §1, §2, §3, §4"}, "advanced BCC": {"system": "advanced BCC", "conditions": "majority of patients; complete and partial responses (Sekulic et al., 2012); cited from earlier work"}}, "note": "Entries after “also recorded” stand apart in the source; their conditions may differ."}
{"molecule": "Cc1sc2c(c1C)C(c1ccc(Cl)cc1)=N[C@@H](CC(=O)OC(C)(C)C)c1nnc(C)n1-2", "note": "[JQ1]", "values": [{"measurement": "proliferation in the presence of JQ1", "setting": "[1]", "result": "reduced proliferation"}]}
{"molecule": "CS(=O)(=O)c1ccc(C(=O)Nc2ccc(Cl)c(-c3ccccn3)c2)c(Cl)c1", "note": "[vismodegib]", "values": [{"measurement": "sensitivity to inhibition by vismodegib", "setting": "SMO L515A", "result": "activating, sensitive"}, {"measurement": "sensitivity to vismodegib", "setting": "SMO E518K", "result": "reduced sensitivity to"}, {"measurement": "sensitivity to inhibition by vismodegib", "setting": "SMO-A459V", "result": "decreased sensitivity; also recorded: reduced sensitivity"}, {"measurement": "sensitivity to vismodegib", "setting": "SMO E518A", "result": "reduced sensitivity to"}, {"measurement": "proliferation at high levels of vismodegib", "setting": "[2]", "result": "continuing to proliferate"}, {"measurement": "proliferation at high concentrations of vismodegib", "setting": "[3]", "result": "continued to proliferate"}, {"measurement": "proliferation at high concentrations of vismodegib", "setting": "[4]", "result": "continued to proliferate"}, {"measurement": "clinical outcome of BCC patients treated with vismodegib", "setting": "advanced BCC", "result": "clinical benefit"}]}
